Reference: the supplement of paper PMC10307832

What was measured:
Experiment in all cases: relative viability (nuclei count vs DMSO), 5 days (fraction); higher = more cells survive
[1] = compound: CC1=C(C(=NN1)C)CC2=C(C3=C(S2)N(C(=O)N(C3=O)C)CC(C)C)C(=O)N4C[C@@H](CO4)O + CS(=O)(=O)CCNCc1ccc(-c2ccc3ncnc(Nc4ccc(OCc5cccc(F)c5)c(Cl)c4)c3c2)o1 [Lapatinib] (partner 2 µM)
Summary of the method: (§1)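 For relative viability, nuclei counts in treated wells were divided by those in vehicle wells. Lung cancer cell lines had been pin-tool dosed in 1536-well plates the day after seeding and cultured for 5 days, then fixed and stained in one step (final 0.05% Triton X-100, 1% formaldehyde, 1 ug/ml Hoechst) and imaged at 4×. Doses were one drug alone or a fixed anchor-drug dose plus five library-drug doses (not always all listed) in √10 steps, and values are duplicate-plate medians.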

[2] = compound: CC1=C(C(=NN1)C)CC2=C(C3=C(S2)N(C(=O)N(C3=O)C)CC(C)C)C(=O)N4C[C@@H](CO4)O + CS(=O)(=O)N1CCN(Cc2cc3nc(-c4cccc5[nH]ncc45)nc(N4CCOCC4)c3s2)CC1 [Pictilisib] (partner 1 µM)
Summary of the method: as §1

IDH-C35 + Lapatinib = compound: Cc1ccccc1C(C(=O)NC1CCCCC1)N(C(=O)Cn1ccnc1C)c1cccc(F)c1 [IDH-C35] + CS(=O)(=O)CCNCc1ccc(-c2ccc3ncnc(Nc4ccc(OCc5cccc(F)c5)c(Cl)c4)c3c2)o1 [Lapatinib] (partner 2 µM)
Summary of the method: as §1

IDH-C35 + Alpelisib = compound: Cc1ccccc1C(C(=O)NC1CCCCC1)N(C(=O)Cn1ccnc1C)c1cccc(F)c1 [IDH-C35] + Cc1nc(NC(=O)N2CCC[C@H]2C(N)=O)sc1-c1ccnc(C(C)(C)C(F)(F)F)c1 [Alpelisib] (partner 2 µM)
Summary of the method: as §1

## NCI-H2405
[1]; first compound 0.0025 µM
  relative viability: 1.26
[1]; first compound 0.007906 µM
  relative viability: 1.1
[1]; first compound 0.07906 µM
  relative viability: 1.18
[1]; first compound 0.25 µM
  relative viability: 1.12
[2]; first compound 0.0025 µM
  relative viability: 0.459
[2]; first compound 0.007906 µM
  relative viability: 0.422
[2]; first compound 0.07906 µM
  relative viability: 0.432
[2]; first compound 0.25 µM
  relative viability: 0.476
IDH-C35 + Lapatinib; first compound 0.08 µM
  relative viability: 1.1
IDH-C35 + Lapatinib; first compound 0.253 µM
  relative viability: 1.2
IDH-C35 + Lapatinib; first compound 0.8 µM
  relative viability: 1.09
IDH-C35 + Lapatinib; first compound 8 µM
  relative viability: 0.957
IDH-C35 + Alpelisib; first compound 0.08 µM
  relative viability: 0.927
IDH-C35 + Alpelisib; first compound 0.253 µM
  relative viability: 0.815
IDH-C35 + Alpelisib; first compound 0.8 µM
  relative viability: 0.777
IDH-C35 + Alpelisib; first compound 8 µM
  relative viability: 0.736

## NCI-H358
[1]; first compound 0.0025 µM
  relative viability: 0.58
[1]; first compound 0.007906 µM
  relative viability: 0.425
[1]; first compound 0.025 µM
  relative viability: 0.478
[1]; first compound 0.07906 µM
  relative viability: 0.514
[1]; first compound 0.25 µM
  relative viability: 0.434
[2]; first compound 0.0025 µM
  relative viability: 0.41
[2]; first compound 0.007906 µM
  relative viability: 0.348
[2]; first compound 0.025 µM
  relative viability: 0.359
[2]; first compound 0.07906 µM
  relative viability: 0.375
[2]; first compound 0.25 µM
  relative viability: 0.375
IDH-C35 + Lapatinib; first compound 0.08 µM
  relative viability: 0.502
IDH-C35 + Lapatinib; first compound 0.253 µM
  relative viability: 0.503
IDH-C35 + Lapatinib; first compound 0.8 µM
  relative viability: 0.445
IDH-C35 + Lapatinib; first compound 2.53 µM
  relative viability: 0.534
IDH-C35 + Lapatinib; first compound 8 µM
  relative viability: 0.508
IDH-C35 + Alpelisib; first compound 0.08 µM
  relative viability: 0.916
IDH-C35 + Alpelisib; first compound 0.253 µM
  relative viability: 0.871
IDH-C35 + Alpelisib; first compound 0.8 µM
  relative viability: 0.746
IDH-C35 + Alpelisib; first compound 2.53 µM
  relative viability: 0.857
IDH-C35 + Alpelisib; first compound 8 µM
  relative viability: 0.915

## NCI-H1944
[1]; first compound 0.0025 µM
  relative viability: 0.877
[1]; first compound 0.007906 µM
  relative viability: 0.94
[1]; first compound 0.025 µM
  relative viability: 0.951
[1]; first compound 0.07906 µM
  relative viability: 0.822
[1]; first compound 0.25 µM
  relative viability: 0.92
[2]; first compound 0.0025 µM
  relative viability: 0.351
[2]; first compound 0.007906 µM
  relative viability: 0.376
[2]; first compound 0.025 µM
  relative viability: 0.356
[2]; first compound 0.07906 µM
  relative viability: 0.389
[2]; first compound 0.25 µM
  relative viability: 0.386
IDH-C35 + Lapatinib; first compound 0.08 µM
  relative viability: 0.858
IDH-C35 + Lapatinib; first compound 0.253 µM
  relative viability: 0.824
IDH-C35 + Lapatinib; first compound 0.8 µM
  relative viability: 0.81
IDH-C35 + Lapatinib; first compound 2.53 µM
  relative viability: 0.774
IDH-C35 + Lapatinib; first compound 8 µM
  relative viability: 0.832
IDH-C35 + Alpelisib; first compound 0.08 µM
  relative viability: 0.848
IDH-C35 + Alpelisib; first compound 0.253 µM
  relative viability: 0.911
IDH-C35 + Alpelisib; first compound 0.8 µM
  relative viability: 0.826
IDH-C35 + Alpelisib; first compound 2.53 µM
  relative viability: 0.75
IDH-C35 + Alpelisib; first compound 8 µM
  relative viability: 0.81

## EPLC-272H
[1]; first compound 0.0025 µM
  relative viability: 1.08
[1]; first compound 0.007906 µM
  relative viability: 0.736
[1]; first compound 0.025 µM
  relative viability: 0.907
[1]; first compound 0.07906 µM
  relative viability: 1.19
[1]; first compound 0.25 µM
  relative viability: 0.937
[2]; first compound 0.0025 µM
  relative viability: 0.317
[2]; first compound 0.007906 µM
  relative viability: 0.293
[2]; first compound 0.025 µM
  relative viability: 0.29
[2]; first compound 0.07906 µM
  relative viability: 0.314
[2]; first compound 0.25 µM
  relative viability: 0.384
IDH-C35 + Lapatinib; first compound 0.08 µM
  relative viability: 1.21
IDH-C35 + Lapatinib; first compound 0.253 µM
  relative viability: 1.04
IDH-C35 + Lapatinib; first compound 0.8 µM
  relative viability: 0.912
IDH-C35 + Lapatinib; first compound 8 µM
  relative viability: 0.802
IDH-C35 + Alpelisib; first compound 0.08 µM
  relative viability: 1.04
IDH-C35 + Alpelisib; first compound 0.253 µM
  relative viability: 0.942
IDH-C35 + Alpelisib; first compound 0.8 µM
  relative viability: 0.895
IDH-C35 + Alpelisib; first compound 8 µM
  relative viability: 0.897

## EBC-1
[1]; first compound 0.0025 µM
  relative viability: 0.201
[1]; first compound 0.007906 µM
  relative viability: 0.204
[1]; first compound 0.025 µM
  relative viability: 0.217
[1]; first compound 0.07906 µM
  relative viability: 0.203
[1]; first compound 0.25 µM
  relative viability: 0.204
[2]; first compound 0.0025 µM
  relative viability: 0.396
[2]; first compound 0.007906 µM
  relative viability: 0.333
[2]; first compound 0.025 µM
  relative viability: 0.447
[2]; first compound 0.07906 µM
  relative viability: 0.493
[2]; first compound 0.25 µM
  relative viability: 0.444
IDH-C35 + Lapatinib; first compound 0.08 µM
  relative viability: 0.24
IDH-C35 + Lapatinib; first compound 0.253 µM
  relative viability: 0.228
IDH-C35 + Lapatinib; first compound 0.8 µM
  relative viability: 0.24
IDH-C35 + Lapatinib; first compound 2.53 µM
  relative viability: 0.232
IDH-C35 + Lapatinib; first compound 8 µM
  relative viability: 0.236
IDH-C35 + Alpelisib; first compound 0.08 µM
  relative viability: 0.879
IDH-C35 + Alpelisib; first compound 0.253 µM
  relative viability: 0.826
IDH-C35 + Alpelisib; first compound 0.8 µM
  relative viability: 0.843
IDH-C35 + Alpelisib; first compound 2.53 µM
  relative viability: 0.867
IDH-C35 + Alpelisib; first compound 8 µM
  relative viability: 0.738

## NCI-H1915
[1]; first compound 0.0025 µM
  relative viability: 0.98
[1]; first compound 0.007906 µM
  relative viability: 1.02
[1]; first compound 0.025 µM
  relative viability: 0.953
[1]; first compound 0.07906 µM
  relative viability: 0.967
[1]; first compound 0.25 µM
  relative viability: 1.06
[2]; first compound 0.0025 µM
  relative viability: 0.965
[2]; first compound 0.007906 µM
  relative viability: 0.927
[2]; first compound 0.025 µM
  relative viability: 0.897
[2]; first compound 0.07906 µM
  relative viability: 0.878
[2]; first compound 0.25 µM
  relative viability: 0.975
IDH-C35 + Lapatinib; first compound 0.08 µM
  relative viability: 0.962
IDH-C35 + Lapatinib; first compound 0.253 µM
  relative viability: 0.996
IDH-C35 + Lapatinib; first compound 0.8 µM
  relative viability: 0.974
IDH-C35 + Lapatinib; first compound 2.53 µM
  relative viability: 0.934
IDH-C35 + Lapatinib; first compound 8 µM
  relative viability: 0.976
IDH-C35 + Alpelisib; first compound 0.08 µM
  relative viability: 1.08
IDH-C35 + Alpelisib; first compound 0.253 µM
  relative viability: 1.07
IDH-C35 + Alpelisib; first compound 0.8 µM
  relative viability: 1.04
IDH-C35 + Alpelisib; first compound 2.53 µM
  relative viability: 1.05
IDH-C35 + Alpelisib; first compound 8 µM
  relative viability: 1.04

## NCI-H596
[1]; first compound 0.0025 µM
  relative viability: 1.12
[1]; first compound 0.007906 µM
  relative viability: 1.19
[1]; first compound 0.025 µM
  relative viability: 1.14
[1]; first compound 0.07906 µM
  relative viability: 0.982
[1]; first compound 0.25 µM
  relative viability: 1.09
[2]; first compound 0.0025 µM
  relative viability: 0.387
[2]; first compound 0.007906 µM
  relative viability: 0.369
[2]; first compound 0.025 µM
  relative viability: 0.387
[2]; first compound 0.07906 µM
  relative viability: 0.431
[2]; first compound 0.25 µM
  relative viability: 0.593
IDH-C35 + Lapatinib; first compound 0.08 µM
  relative viability: 1.01
IDH-C35 + Lapatinib; first compound 0.253 µM
  relative viability: 1.04
IDH-C35 + Lapatinib; first compound 0.8 µM
  relative viability: 1.11
IDH-C35 + Lapatinib; first compound 2.53 µM
  relative viability: 1.16
IDH-C35 + Lapatinib; first compound 8 µM
  relative viability: 1.06
IDH-C35 + Alpelisib; first compound 0.08 µM
  relative viability: 0.552
IDH-C35 + Alpelisib; first compound 0.253 µM
  relative viability: 0.48
IDH-C35 + Alpelisib; first compound 0.8 µM
  relative viability: 0.555
IDH-C35 + Alpelisib; first compound 2.53 µM
  relative viability: 0.471
IDH-C35 + Alpelisib; first compound 8 µM
  relative viability: 0.446

## NCI-H322M
[1]; first compound 0.0025 µM
  relative viability: 0.626
[1]; first compound 0.007906 µM
  relative viability: 0.605
[1]; first compound 0.025 µM
  relative viability: 0.601
[1]; first compound 0.07906 µM
  relative viability: 0.55
[1]; first compound 0.25 µM
  relative viability: 0.524
[2]; first compound 0.0025 µM
  relative viability: 0.519
[2]; first compound 0.007906 µM
  relative viability: 0.504
[2]; first compound 0.025 µM
  relative viability: 0.562
[2]; first compound 0.07906 µM
  relative viability: 0.58
[2]; first compound 0.25 µM
  relative viability: 0.5
IDH-C35 + Lapatinib; first compound 0.08 µM
  relative viability: 0.541
IDH-C35 + Lapatinib; first compound 0.253 µM
  relative viability: 0.59
IDH-C35 + Lapatinib; first compound 0.8 µM
  relative viability: 0.625
IDH-C35 + Lapatinib; first compound 2.53 µM
  relative viability: 0.529
IDH-C35 + Lapatinib; first compound 8 µM
  relative viability: 0.608
IDH-C35 + Alpelisib; first compound 0.08 µM
  relative viability: 0.878
IDH-C35 + Alpelisib; first compound 0.253 µM
  relative viability: 0.818
IDH-C35 + Alpelisib; first compound 0.8 µM
  relative viability: 0.743
IDH-C35 + Alpelisib; first compound 2.53 µM
  relative viability: 0.806
IDH-C35 + Alpelisib; first compound 8 µM
  relative viability: 0.837
